Laboratory results: PubChem BioAssay (NCI)
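The compound was tested at five concentrations on cells cultured in 96-well plates, with a 48-hour exposure period. GI50 marks 50% less growth. TGI is the concentration that stops growth completely.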

How the values were obtained:
Assay in all cases: NCI-60 cell line screen, 48 h
HCC-2998 colon = test system: HCC-2998 colon
HCT-116 colon = test system: HCT-116 colon
HOP-92 NSCLC = test system: HOP-92 NSCLC
K-562 leukemia = test system: K-562 leukemia
KM20L2 colon = test system: KM20L2 colon
LXFL 529 NSCLC = test system: LXFL 529 NSCLC
M14 melanoma = test system: M14 melanoma
NCI-H522 lung = test system: NCI-H522 lung
RXF 393 renal = test system: RXF 393 renal
SNB-19 CNS = test system: SNB-19 CNS

SMILES: NC(=O)/N=C1/CCC2C3CCCC2C13
- TGI (HCC-2998 colon): > 100 µM
- TGI (HCT-116 colon): > 100 µM
- TGI (HOP-92 NSCLC): > 100 µM
- TGI (K-562 leukemia): > 100 µM
- TGI (KM20L2 colon): > 100 µM
- TGI (LXFL 529 NSCLC): > 100 µM
- TGI (M14 melanoma): > 100 µM
- TGI (NCI-H522 lung): > 100 µM
- TGI (RXF 393 renal): > 100 µM
- TGI (SNB-19 CNS): > 100 µM

SMILES: Cc1ccc(S(=O)(=O)NC2(C=O)CCCC3CCCCC32)cc1 (stereo not drawn)
- TGI (HCC-2998 colon): > 100 µM
- TGI (HCT-116 colon): > 100 µM
- TGI (K-562 leukemia): > 100 µM
- TGI (KM20L2 colon): > 100 µM
- TGI (LXFL 529 NSCLC): > 100 µM
- TGI (M14 melanoma): > 100 µM
- TGI (NCI-H522 lung): > 100 µM
- TGI (RXF 393 renal): > 100 µM
- TGI (SNB-19 CNS): > 100 µM

SMILES: CC12CCC3(OCCO3)C(OC(=O)c3ccccc3)=C1CCC21OCCO1 (stereo not drawn)
- TGI (HCC-2998 colon): > 100 µM
- TGI (HCT-116 colon): > 100 µM
- TGI (HOP-92 NSCLC): > 100 µM
- TGI (KM20L2 colon): > 100 µM
- TGI (LXFL 529 NSCLC): > 100 µM
- TGI (M14 melanoma): > 100 µM
- TGI (NCI-H522 lung): > 100 µM
- TGI (RXF 393 renal): > 100 µM
- TGI (SNB-19 CNS): > 100 µM

SMILES: O=C(O)CCC(N=Cc1nc(-c2ccccc2)oc1O)C(=O)O (stereo not drawn)
- TGI (HCC-2998 colon): > 100 µM
- TGI (HCT-116 colon): > 100 µM
- TGI (K-562 leukemia): > 100 µM
- TGI (KM20L2 colon): > 100 µM
- TGI (LXFL 529 NSCLC): > 100 µM
- TGI (M14 melanoma): > 100 µM
- TGI (NCI-H522 lung): > 100 µM
- TGI (RXF 393 renal): > 100 µM
- TGI (SNB-19 CNS): > 100 µM

SMILES: O=[P+](O)c1ccsc1
- TGI (HCT-116 colon): > 100 µM
- TGI (HOP-92 NSCLC): > 100 µM
- TGI (K-562 leukemia): > 100 µM
- TGI (KM20L2 colon): > 100 µM
- TGI (LXFL 529 NSCLC): > 100 µM
- TGI (M14 melanoma): > 100 µM
- TGI (NCI-H522 lung): > 100 µM
- TGI (RXF 393 renal): > 100 µM

SMILES: COC(=O)C(C(=O)C(=O)Nc1ccc([N+](=O)[O-])cc1[N+](=O)[O-])c1nc2ccc(Cl)cc2[nH]c1=O (stereo not drawn)
- TGI (HCC-2998 colon): > 100 µM
- TGI (HCT-116 colon): > 100 µM
- TGI (HOP-92 NSCLC): > 100 µM
- TGI (K-562 leukemia): > 100 µM
- TGI (KM20L2 colon): > 100 µM
- TGI (M14 melanoma): > 100 µM
- TGI (RXF 393 renal): > 100 µM
- TGI (SNB-19 CNS): > 100 µM

SMILES: CC(C)([NH-])CO.CC(C)([NH-])CO.[Cl][Cd][Cl]
- GI50 (HCC-2998 colon): 19.3 µM
- TGI (HCC-2998 colon): 59.5 µM
- GI50 (HCT-116 colon): 18.8 µM
- TGI (HCT-116 colon): 33.8 µM
- GI50 (HOP-92 NSCLC): 19.3 µM
- TGI (HOP-92 NSCLC): 34 µM
- GI50 (K-562 leukemia): 18.7 µM
- TGI (K-562 leukemia): 40 µM
- GI50 (KM20L2 colon): 30.9 µM
- TGI (KM20L2 colon): 79.7 µM
- GI50 (LXFL 529 NSCLC): 15 µM
- TGI (LXFL 529 NSCLC): 29.3 µM
- GI50 (M14 melanoma): 18 µM
- TGI (M14 melanoma): 33.4 µM
- GI50 (NCI-H522 lung): 1.56 µM
- TGI (NCI-H522 lung): 3.37 µM
- GI50 (SNB-19 CNS): > 100 µM
- TGI (SNB-19 CNS): > 100 µM

SMILES: Cc1csc(/C=C/C(=O)c2nnn(-c3ccnc4c(C(F)(F)F)cccc34)c2C)c1
- GI50 (HCC-2998 colon): 43.7 µM
- TGI (HCC-2998 colon): > 100 µM
- GI50 (HCT-116 colon): 39.9 µM
- TGI (HCT-116 colon): > 100 µM
- GI50 (HOP-92 NSCLC): 90.2 µM
- TGI (HOP-92 NSCLC): > 100 µM
- GI50 (K-562 leukemia): 23 µM
- TGI (K-562 leukemia): > 100 µM
- GI50 (M14 melanoma): > 100 µM
- TGI (M14 melanoma): > 100 µM
- GI50 (NCI-H522 lung): 26.4 µM
- TGI (NCI-H522 lung): > 100 µM
- GI50 (RXF 393 renal): > 100 µM
- TGI (RXF 393 renal): > 100 µM
- GI50 (SNB-19 CNS): 72.8 µM
- TGI (SNB-19 CNS): > 100 µM

SMILES: c1ccc(CN2COc3c(ccc4c3OCN(Cc3ccccc3)C4)C2)cc1
- GI50 (HCC-2998 colon): 1.21 µM
- TGI (HCC-2998 colon): > 100 µM
- GI50 (HCT-116 colon): 0.535 µM
- TGI (HCT-116 colon): > 100 µM
- GI50 (HOP-92 NSCLC): 1.18 µM
- TGI (HOP-92 NSCLC): > 100 µM
- GI50 (K-562 leukemia): 0.445 µM
- TGI (K-562 leukemia): > 100 µM
- GI50 (M14 melanoma): 0.49 µM
- TGI (M14 melanoma): > 100 µM
- GI50 (NCI-H522 lung): 2.05 µM
- TGI (NCI-H522 lung): > 100 µM
- GI50 (RXF 393 renal): 0.41 µM
- TGI (RXF 393 renal): > 100 µM
- GI50 (SNB-19 CNS): 1 µM
- TGI (SNB-19 CNS): > 100 µM
